Reference: patent US7402585B2, “Substituted quinazoline derivatives as inhibitors of aurora kinases” (AstraZeneca AB, priority 2001, dated 2008)

Columns and labels:
[1] = tested on: SW620 cells; test: In vitro cell proliferation assay (BrdU incorporation); format: cell-based; conditions: SW-620; SW620 human tumour cell line, 48 hours with compound, 2 hour BrdU labelling; read-out: concentration active (50% inhibition of BrdU incorporation)
Text: (c) In Vitro Cell Proliferation Assay
This and other assays can be used to determine the ability of a test compound to inhibit the growth of adherent mammalian cell lines, for example the human tumour cell line SW620 (ATCC CCL-227). This assay determines the ability of at test compound to inhibit the incorporation of the thymidine analogue, 5′-bromo-2′-deoxy-uridine (BrdU) into cellular DNA. SW620 or other adherent cells were typically seeded at 1×10^5 cells per well in L-15 media (GIBCO) plus 5% foetal calf serum, 1% L-glutamine (100 μl/well) in 96 well tissue culture treated 96 well plates (Costar) and allowed to adhere overnight. […] The optical density of the wells was then determined at 690 nm wavelength using a Titertek Multiscan plate reader. […]

[2] = biological target: T1, Aurora-A kinase (Homo sapiens, UniProt O14965); test: In vitro Aurora-A kinase inhibition test; format: biochemical
T1 construct: 6His (with spacer region and rTEV protease cleavage site from pFastBac HTc) (N); made in house; host or cells: Spodoptera frugiperda Sf21 insect cells (baculovirus, pFastBac HTc)
T1 sequence (O14965 1-403): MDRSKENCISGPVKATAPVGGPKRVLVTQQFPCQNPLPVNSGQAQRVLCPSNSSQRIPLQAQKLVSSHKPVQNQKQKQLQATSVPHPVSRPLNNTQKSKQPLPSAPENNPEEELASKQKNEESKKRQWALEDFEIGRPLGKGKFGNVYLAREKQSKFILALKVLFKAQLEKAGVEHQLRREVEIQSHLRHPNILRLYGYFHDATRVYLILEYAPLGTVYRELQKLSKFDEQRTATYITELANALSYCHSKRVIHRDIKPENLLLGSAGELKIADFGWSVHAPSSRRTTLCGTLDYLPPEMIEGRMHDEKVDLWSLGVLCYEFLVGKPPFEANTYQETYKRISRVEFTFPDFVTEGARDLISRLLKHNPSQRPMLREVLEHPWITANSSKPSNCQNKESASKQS

| Compound | IC50 [1] [nM] | IC50 [2] [nM] |
| --- | --- | --- |
| COc1cc2c(Nc3cc(CC(=O)Nc4cccc(F)c4)[nH]n3)ncnc2cc1OCCCN1CCC[C@H]1CO [Compound 8, N-(3-fluorophenyl)-2-{3-[(7-{3-[(2S)-2-(hydroxymethyl)pyrrolidin-1-yl]propoxy}-6-methoxyquinazolin-4-yl)amino]-1H-pyrazol-5-yl}acetamide] | 86 | 10 |
| COc1cc2c(Nc3cc(CC(=O)Nc4cccc(F)c4)[nH]n3)ncnc2cc1OCCCN(C)CCO [Compound 13, N-(3-fluorophenyl)-2-{3-[(7-{3-[(2-hydroxyethyl)(methyl)amino]propoxy}-6-methoxyquinazolin-4-yl)amino]-1H-pyrazol-5-yl}acetamide] | 79 | 1 |
